Reference: a melting point compilation (Tetko et al.)

| Structure (SMILES) | melting point [°C] |
| --- | --- |
| CNS(=O)(=O)c1ccc(C(=O)O)o1 | 164 to 166 |
| COC(=O)C(=O)CC(=O)c1ccc(OC)c(OC)c1 | 141 to 150 |
| NC(=O)c1cccnc1NC1CCN(Cc2ccccc2)CC1 | 73 to 75 |
| COc1ccc2c(O)c(C(=O)O)cnc2c1 | 269 to 271 |
| Cc1ccc(Cl)c2ccc(Cl)nc12 | 61 to 63 |
| Cc1cc(=O)[nH]c(-c2ccc(N)cc2)n1 | 222 to 224 |
| O=C(Nc1nncs1)OCC(F)(F)F | 213 to 215 |
| OCc1cnn(-c2ccccc2)n1 | 70 to 72 |
| O=C(O)c1ccc(NC(=O)c2ccccc2)cc1 | 297 to 299 |
| Nc1cccnc1-n1cncn1 | 110 to 112 |
| CCC(=O)c1ccc(OC(F)F)cc1 | 39 to 43 |
| CC(C)(C)NS(=O)(=O)c1ccc(N)nc1 | 146 to 148 |
| Cc1nc(C(C)C)sc1C(=O)O | 169 to 171 |
| COc1ccc(/C=C/c2cc(C(=O)O)c3cc(Br)ccc3n2)cc1 | 295 to 297 |
| Nn1cnc2sccc2c1=O | 214 to 216 |
| COc1cccc2[nH]cc(CC(=O)O)c12 | 174 to 176 |
| C#Cc1cccc(NCC(=O)N2CCOCC2)c1 | 185 to 187 |
| c1ccc2sc(NCCCN3CCOCC3)nc2c1 | 182 to 184 |
| Cc1ccccc1-n1nc(C(=O)O)c2c1CCC2 | 205 to 207 |
| O=C1CCCc2c1[nH]c1ccc(Br)cc21 | 189 to 191 |
| O=C(O)c1ccc(N2CCCCC2)c(S(=O)(=O)N2CCCCC2)c1 | 196 to 198 |
| COc1ccccc1-c1ccc(C=O)cc1 | 49 to 51 |
| CCCOc1cc2c(cc1C=O)OC(C)C2 (configuration not stated) | 45 to 47 |
| COc1ccc(CNc2nccs2)c(OC)c1 | 112 to 114 |

| Structure (SMILES) | melting point [°C] |
| --- | --- |
| NC(=O)c1ccsc1NC(=O)CCCl | 171 to 173 |
| CC(C)(O)c1cnc(Cl)nc1 | 98 to 100 |
| CCC(C)Oc1cc(C(=O)O)ccn1 (configuration not stated) | 83 to 85 |
| Brc1cn2ccnc2c(Br)n1 | 152 to 154 |
| CCS(=O)(=O)N1CCC(C(=O)O)CC1 | 143 to 145 |
| CN1CC(=O)N(CCCC(=O)O)C1=O | 79 to 81 |
| Cc1nc(-c2cccnc2)[nH]c(=O)c1CCC(=O)O | 279 to 281 |
| COc1ccc(CCN)c(O)c1 | 98 to 100 |
| COc1ccc(-c2ncc(C(=O)O)s2)cc1 | 239 to 241 |
| Cc1cc(C=O)c(C)n1-c1ccnn1C(C)C | 77 to 79 |
| NS(=O)(=O)c1ccc(CCNC(=O)CCl)cc1 | 145 to 148 |
| Cc1ccc(C(=O)c2ccc3[nH]c(=O)oc3c2)cc1 | 206 to 208 |
| OC(CC1COCCN1)c1ccco1 (configuration not stated) | 84 to 86 |
| NS(=O)(=O)CCCN1C(=O)c2ccccc2C1=O | 173 to 175 |
| COc1ccccc1OCc1ccc(C(=O)O)o1 | 183 to 185 |
| COC(=O)c1c(O)cc(=O)n2c1CCC2 | 167 to 169 |
| Nc1ccccc1NC(=O)c1cccs1 | 110 to 112 |
| O=C1CC(C(F)F)=NN1 | 149 to 151 |
| Cc1nc2scc(-c3ccccc3)c2c(=O)n1N | 134 to 136 |
| O=C(O)CNC(=O)C12CC3CC(CC(C3)C1)C2 | 145 to 147 |
| O=C(O)CCNC(=O)c1ccoc1 | 154 to 156 |
| CC(C)c1ccc(-n2ccnc2S)cc1 | 131 to 135 |
| CCC1(c2ccc(C)cc2)CC(=O)NC1=O (configuration not stated) | 76 to 78 |
| Nc1ccc2ccoc2c1 | 51 to 53 |

| Structure (SMILES) | melting point [°C] |
| --- | --- |
| Nc1cncc(Cl)n1 | 149 to 151 |
| Cn1ccc(S(=O)(=O)N2CCNCC2)c1 | 129 to 131 |
| CN(C)CCN=C=S | 35 to 37 |
| Cn1cc(C(=O)O)c(C2CCCCC2)n1 | 157 to 159 |
| O=C(O)c1ccnc(Cl)c1F | 194 to 196 |
| CCOC(=O)Cn1ncc2ccc(N)cc21 | 114 to 116 |
| O=S(=O)(Cl)c1cc2c(cc1Br)OCCO2 | 173 to 175 |
| O=C1COc2ccc(Br)cc2N1CCCl | 117 to 119 |
| CS(=O)(=O)c1c(F)cc(N)cc1F | 169 to 171 |
| CCC1CCc2[nH]c3ccc(C)cc3c2C1 (configuration not stated) | 59 to 61 |
| O=C(O)c1cnc2ccccn2c1=O | 251 to 253 |
| Cc1ccccc1CC(=O)Nc1ccc(C(=O)O)c(O)c1 | 222 to 224 |
| CCC(c1ccccc1)c1nnc(N)s1 (configuration not stated) | 184 to 186 |
| O=C(O)C1(Cc2nc3ccccc3[nH]2)CCCC1 | 255 to 257 |
| O=C(O)c1nccnc1-c1nc2ccccc2s1 | 188 to 190 |
| COc1cccc(-c2noc(SCC(=O)O)n2)c1 | 103 to 105 |
| O=C(O)CCS(=O)(=O)C(F)(F)F | 104 to 106 |
| NC(=O)NC(C(=O)O)c1ccccc1 (configuration not stated) | 201 to 203 |
| CC(NC(=O)c1ccco1)C(=O)O (configuration not stated) | 100 to 102 |
| NC(=O)CCSc1ccc(F)cc1 | 119 to 121 |
| O=C1CN(c2cc(Cl)ccc2Cl)CC(=O)N1 | 139 to 141 |
| CC(C)c1cc(C(=O)O)nn1-c1ccccn1 | 146 to 148 |
| O=Cc1csc(-c2ccccn2)n1 | 130 to 132 |
| Nc1cccc(C(=O)Nc2cnccn2)c1 | 135 to 137 |
